Data: patent US9107844B2, “Topical skin treating compositions” (STIEFEL LABORATORIES INC., priority 2006, dated 2015)

Assays:
Type in all cases: physicochemical
[1] = Stability of combined active ingredients, Example 6 composition (benzoyl peroxide/tazarotene/clindamycin); details: 0.096% tazarotene, […] clindamycin, Initial […], 2 weeks
Description: Measurements were taken at the end of 2 weeks. The composition was stored at 2 different temperatures, i.e., 25° C. and 30° C. […]

[2] = Stability of active ingredients, Example 9 composition (benzoyl peroxide/tazarotene); details: composition 5.18% BPO, 0.099% tazarotene, Initial 5.18%
Description: Tables 9 and 10 show the stability of the active ingredients in a composition containing 5.18% of benzoyl peroxide and 0.099% of tazarotene.
A 2-week and 6-month analysis of the composition was undertaken following the procedure of Example 2.

[3] = Stability of active ingredients, Example 10 composition (benzoyl peroxide/clindamycin); details: composition 4.84% BPO, 1.08% clindamycin, Initial 4.84%
Description: A 2-week analysis and 6-month analysis of the composition was undertaken following the procedure of Example 2.

Benzoyl Peroxide (BPO) (as % w/w) ([1]; 25° C.): 1.06 % w/w | Benzoyl Peroxide (BPO) (as % w/w) ([1]; 30° C.): 1.06 % w/w | Benzoyl Peroxide (BPO) (as % w/w) ([2]; 6° C., 6 months): 5.2 % w/w | Benzoyl Peroxide (BPO) (as % w/w) ([2]; 25° C., 2 weeks): 5.21 % w/w | Benzoyl Peroxide (BPO) (as % w/w) ([2]; 25° C., 6 months): 5.14 % w/w | Benzoyl Peroxide (BPO) (as % w/w) ([3]; 6° C., 2 weeks): 5.53 % w/w | Benzoyl Peroxide (BPO) (as % w/w) ([3]; 6° C., 6 months): 4.81 % w/w | Benzoyl Peroxide (BPO) (as % w/w) ([3]; 25° C., 2 weeks): 5.01 % w/w | Benzoyl Peroxide (BPO) (as % w/w) ([3]; 25° C., 6 months): 4.85 % w/w
SMILES: O=C(OOC(=O)c1ccccc1)c1ccccc1 [Benzoyl Peroxide]
